According to the NIST ThermoML archive (doi:10.1016/j.jct.2012.11.014):

Assay: xn = mol fraction of the nth substance listed
Details: 101 kPa, Liquid; for speed of sound: Frequency=2 MHz, Linear variable-path acoustic interferometer; for viscosity: Oscillating disk viscometry; for mass density: Vibrating tube method

C[NH+](C)C.O=P([O-])(O)O [trimethylammonium dihydrogen phosphate] + C[S+](C)[O-]
Details | mass density [kg/m3] | speed of sound [m/s] | viscosity [mPa·s]
298.15 K, x1 = 0.0264 | 1101.75 | 1494 | 2.17
298.15 K, x1 = 0.0397 | 1104.69 | 1493 | 2.25
298.15 K, x1 = 0.0708 | 1111.45 | 1492 | 2.45
298.15 K, x1 = 0.1172 | 1121.12 | 1494 | 2.74
298.15 K, x1 = 0.1673 | 1130.48 | 1496 | 3.05
298.15 K, x1 = 0.2284 | 1141.05 | 1502 | 3.41
298.15 K, x1 = 0.2934 | 1153.02 | 1510 | 3.79
298.15 K, x1 = 0.3413 | 1160.74 | 1518 | 4.07
298.15 K, x1 = 0.4012 | 1172.7 | 1527 | 4.41
298.15 K, x1 = 0.4659 | 1185.32 | 1540 | 4.77
298.15 K, x1 = 0.5306 | 1199.2 | 1554 | 5.12
298.15 K, x1 = 0.6022 | 1215.92 | 1570 | 5.51
298.15 K, x1 = 0.6728 | 1235.08 | 1587 | 5.89
298.15 K, x1 = 0.7504 | 1257.14 | 1608 | 6.3
298.15 K, x1 = 0.8137 | 1278.01 | 1624 | 6.64
298.15 K, x1 = 0.8805 | 1302.18 | 1641 | 6.99
298.15 K, x1 = 0.9643 | 1337.27 | 1662 | 7.45
298.15 K, x1 = 0.9858 | 1347.05 | 1668 | 7.56
298.15 K, x1 = 1 | 1353.61 | 1672 | 7.64
303.15 K, x1 = 0.0264 | 1099.07 | 1471 | 1.95
303.15 K, x1 = 0.0397 | 1102.31 | 1471 | 2.02
303.15 K, x1 = 0.0708 | 1109.32 | 1471 | 2.18
303.15 K, x1 = 0.1172 | 1119.09 | 1474 | 2.43
303.15 K, x1 = 0.1673 | 1128.56 | 1477 | 2.69
303.15 K, x1 = 0.2284 | 1139.84 | 1483 | 2.99
303.15 K, x1 = 0.2934 | 1151.1 | 1491 | 3.31
303.15 K, x1 = 0.3413 | 1160.68 | 1499 | 3.53
303.15 K, x1 = 0.4012 | 1171.28 | 1510 | 3.81
303.15 K, x1 = 0.4659 | 1184.46 | 1523 | 4.11
303.15 K, x1 = 0.5306 | 1198.94 | 1537 | 4.4
303.15 K, x1 = 0.6022 | 1214.84 | 1554 | 4.72
303.15 K, x1 = 0.6728 | 1233.24 | 1572 | 5.02
303.15 K, x1 = 0.7504 | 1256.51 | 1592 | 5.36
303.15 K, x1 = 0.8137 | 1276.03 | 1610 | 5.64
303.15 K, x1 = 0.8805 | 1302.06 | 1627 | 5.93
303.15 K, x1 = 0.9643 | 1336.07 | 1649 | 6.3
303.15 K, x1 = 0.9858 | 1344.82 | 1656 | 6.4
303.15 K, x1 = 1 | 1350.62 | 1660 | 6.46
308.15 K, x1 = 0.0264 | 1093.45 | 1459 | 1.78
308.15 K, x1 = 0.0397 | 1096.91 | 1460 | 1.83
308.15 K, x1 = 0.0708 | 1104.49 | 1461 | 1.97
308.15 K, x1 = 0.1172 | 1114.06 | 1464 | 2.18
308.15 K, x1 = 0.1673 | 1124.47 | 1468 | 2.41
308.15 K, x1 = 0.2284 | 1136.12 | 1475 | 2.67
308.15 K, x1 = 0.2934 | 1147.36 | 1485 | 2.94
308.15 K, x1 = 0.3413 | 1157.63 | 1492 | 3.13
308.15 K, x1 = 0.4012 | 1167.76 | 1504 | 3.37
308.15 K, x1 = 0.4659 | 1181.31 | 1518 | 3.62
308.15 K, x1 = 0.5306 | 1196.24 | 1531 | 3.86
308.15 K, x1 = 0.6022 | 1214.48 | 1548 | 4.13
308.15 K, x1 = 0.6728 | 1232.06 | 1567 | 4.38
308.15 K, x1 = 0.7504 | 1256.27 | 1588 | 4.67
308.15 K, x1 = 0.8137 | 1276.94 | 1605 | 4.91
308.15 K, x1 = 0.8805 | 1301.06 | 1625 | 5.16
308.15 K, x1 = 0.9643 | 1334.09 | 1649 | 5.47
308.15 K, x1 = 0.9858 | 1342.26 | 1656 | 5.56
308.15 K, x1 = 1 | 1347.59 | 1661 | 5.61
313.15 K, x1 = 0.0264 | 1089.15 | 1442 | 1.65
313.15 K, x1 = 0.0397 | 1092.77 | 1443 | 1.7
313.15 K, x1 = 0.0708 | 1100.69 | 1444 | 1.83
313.15 K, x1 = 0.1172 | 1109.86 | 1449 | 2.02
313.15 K, x1 = 0.1673 | 1121.53 | 1452 | 2.22
313.15 K, x1 = 0.2284 | 1134.54 | 1460 | 2.45
313.15 K, x1 = 0.2934 | 1145.27 | 1471 | 2.69
313.15 K, x1 = 0.3413 | 1156.54 | 1479 | 2.86
313.15 K, x1 = 0.4012 | 1167.52 | 1493 | 3.07
313.15 K, x1 = 0.4659 | 1181.73 | 1507 | 3.3
313.15 K, x1 = 0.5306 | 1196.14 | 1522 | 3.51
313.15 K, x1 = 0.6022 | 1214.06 | 1540 | 3.75
313.15 K, x1 = 0.6728 | 1232.95 | 1560 | 3.98
313.15 K, x1 = 0.7504 | 1256.04 | 1581 | 4.24
313.15 K, x1 = 0.8137 | 1276.61 | 1601 | 4.44
313.15 K, x1 = 0.8805 | 1299.14 | 1623 | 4.67
313.15 K, x1 = 0.9643 | 1331.48 | 1651.4 | 4.95
313.15 K, x1 = 0.9858 | 1339.35 | 1659 | 5.02
313.15 K, x1 = 1 | 1344.52 | 1664 | 5.07
